{"source": "patent US20060018827A1", "about": "“Positron therapy of inflammation, infection and disease” (priority 2004, published 2006)", "type_in_all_cases": "in vivo, mouse", "key": {"[1]": {"tested_on": "mammary tumors of PyMT mice", "experiment": "PET imaging of PyMT mice with ^18F-FDG", "conditions": "PET 1 hour after i.p. 0.5-2.0 mCi", "method": "(§1) Animals. All procedures involving mice were conducted in accordance with the National Institutes of Health regulations concerning the use and care of experimental animals. The study of mice was approved by the Albert Einstein College of Medicine (AECOM) Animal Use Committee. Transgenic mice expressing the polyoma middle T antigen (PyMT) in the mammary epithelium under the control of mouse mammary tumor virus (MMTV) long terminal repeat were provided by Dr. W. J. Muller (McMaster University, Ontario, Canada) and then bred at AECOM. At the age of 10 weeks these mice have multiple mammary tumors 0.15-0.17 cm in diameter. In mice older than 18 weeks the tumors are more than 1 cm in diameter. MMTV-NeuT mice (Muller et al. 1988), which carry erbB-2 (Neu), one of the better known human breast cancer oncogenes, were purchased from Jackson Laboratories. MMTV-NeuT mice were obtained as retired breeders and some of them developed mammary tumors at the age of 5 months, whereas others remained-tumor free until 6-7 months of age. C3H/B6 female mice lacking the PyMT transgene were used as healthy controls in therapy experiments. […]\nImaging of mice with ^18F-FDG. […] The tumor to liver ratios (TLRs) were calculated by the formula TLR=counts per pixel in tumor divided by counts per pixel in liver."}, "BALB/c mice": {"tested_on": "BALB/c mice", "experiment": "Radiotoxicity studies of ^18F-FDG in healthy mice", "conditions": "doses of up to 5 mCi i.p., 1 month", "method": "Radiotoxicity studies of ^18F-FDG in healthy mice. After a 4-hour fast, […] of BALB/c mice were treated i.p. with the following doses of ^18F-FDG: group 1 (three mice), 2.5 mCi; group 2 (three mice), 5 mCi; group 3 (three mice), left untreated for control. The mice were monitored for changes in behavior and body weight for 1 month, after which they were killed. Their heart, brain, liver, kidneys, bladder, and bone marrow were removed, fixed in buffered formalin, sectioned, stained with hematoxylin and eosin (H&E), and analyzed histologically."}, "[2]": {"tested_on": "mammary tumors in PyMT mice", "experiment": "Treatment of PyMT mice with ^18F-FDG (toleration, apoptosis and necrosis detection)", "method": "Animals. All procedures involving mice were conducted in accordance with the National Institutes of Health regulations concerning the use and care of experimental animals. The study of mice was approved by the Albert Einstein College of Medicine (AECOM) Animal Use Committee. Transgenic mice expressing the polyoma middle T antigen (PyMT) in the mammary epithelium under the control of mouse mammary tumor virus (MMTV) long terminal repeat were provided by Dr. W. J. Muller (McMaster University, Ontario, Canada) and then bred at AECOM. At the age of 10 weeks these mice have multiple mammary tumors 0.15-0.17 cm in diameter. In mice older than 18 weeks the tumors are more than 1 cm in diameter. MMTV-NeuT mice (Muller et al. 1988), which carry erbB-2 (Neu), one of the better known human breast cancer oncogenes, were purchased from Jackson Laboratories. MMTV-NeuT mice were obtained as retired breeders and some of them developed mammary tumors at the age of 5 months, whereas others remained-tumor free until 6-7 months of age. C3H/B6 female mice lacking the PyMT transgene were used as healthy controls in therapy experiments. Notch tumor-bearing mice were produced by subcutaneously injecting six to eight week old female nude mice with […] Notch cells on their right flank. One week after implantation the tumors reached 0.5-0.7 cm in diameter and therapy with FDG was initiated.\nTreatment of PyMT mice with ^18F-FDG. After a 4-hour fast, three groups of mice were treated i.p. with the following doses of ^18F-FDG: group 1 (five 10-week-old mice), 2-4 mCi; group 2 (three 22-week-old mice), 2 mCi; group 3 (two C3H/B6 mice), 3 mCi to assess radiation damage to healthy breast tissue. Three 10-week-old and two 22-week-old PyMT mice served as untreated controls. At 10 days after treatment, mice were killed. In younger mice, the right abdominal mammary glands were removed for whole mount preparation as described (Gouon-Evans et al., 2000), then fixed in buffered formalin and sectioned. In older mice, the tumors were removed and processed as above. Some sections were stained with H&E; others were analyzed for the presence of apoptotic and necrotic cells.\nApoptosis and necrosis detection. The detection of apoptotic and necrotic cells in the tumors was performed with an Apoptag® Plus apoptosis detection kit (Serologicals) in accordance with the manufacturer's instructions. In brief, 3′-OH termini of DNA fragments, which are the hallmark of apoptosis, were labeled with digoxigenin-modified nucleotides by terminal deoxynucleotidyl transferase. This enzyme selectively detects apoptotic over necrotic cells. The labeled DNA was detected with an anti-digoxigenin antibody, and detection was performed with a chromagen: apoptotic cells were stained brown, and areas of necrosis were stained yellow."}, "xenografted Notch tumor [3]": {"tested_on": "xenografted Notch tumor", "experiment": "PET-CT imaging of Notch tumor-bearing mice with ^18F-FDG", "conditions": "nude mice with Notch tumor; PET-CT 1 hour after i.p. 0.5 mCi", "method": "(§2) Notch cell line. Mouse mammary gland cell line 5505 was derived from mammary tumors arising in transgenic mice which express an activated form of Notch 4 from the mouse mammary tumor virus long terminal repeat (MMTV-LTR) promoter/enhancer (Fitzgerald et al. 2000). This cell line is further referred to herein as Notch cells. The Notch cells were cultured in DMEM supplemented with 10% FCS, 10% NCTC-109, 1% non-essential amino acids, […] D-glucose and 1% penicillin-streptomycin.\nAnimals. All procedures involving mice were conducted in accordance with the National Institutes of Health regulations concerning the use and care of experimental animals. The study of mice was approved by the Albert Einstein College of Medicine (AECOM) Animal Use Committee. Transgenic mice expressing the polyoma middle T antigen (PyMT) in the mammary epithelium under the control of mouse mammary tumor virus (MMTV) long terminal repeat were provided by Dr. W. J. Muller (McMaster University, Ontario, Canada) and then bred at AECOM. At the age of 10 weeks these mice have multiple mammary tumors 0.15-0.17 cm in diameter. […]\nNotch tumor-bearing animals were fasted and anesthetized as described above. […] The tumor to normal muscle ratio (TNR) was calculated according to the formula: TNR=average counts per pixel in tumor/average counts per pixel in normal muscle."}, "xenografted Notch tumor [4]": {"tested_on": "xenografted Notch tumor", "experiment": "Treatment of Notch tumor-bearing mice with ^18F-FDG", "conditions": "Notch tumor-bearing nude mice, 2.5 mCi i.p.", "method": "as §2, §1\nTreatment of Notch tumor-bearing mice with ^18F-FDG. […] Animals were monitored for their vital signs and survival for 1 month. Their tumors were measured every 3 days with calipers in three perpendicular planes and the product of the three measurements was multiplied by 0.5 and expressed in cm^3. The growth rate for tumors in cm^3/day was calculated using the formula: […]/number of days survived. […]"}}, "note": "Several values for one entry are separate records, joined by “and”; a condition that tells them apart may be missing. Equal values may be shown once.", "data": [{"compound": "O=C[C@H]([18F])[C@@H](O)[C@H](O)[C@H](O)CO", "note": "[^18F-FDG, ^18F-2-deoxy-2-fluoro-D-glucose]", "values": [{"measurement": "tumor to liver ratio (TLR), mean±SD", "setting": "[1]", "result": "1.6±0.1"}, {"measurement": "damage in major organs including bone marrow (histological examination)", "setting": "BALB/c mice", "result": "no damage in major organs"}, {"measurement": "apoptotic cells in treated small tumors", "setting": "[2]; 10-week-old PyMT mice, tumors 0.15-0.17 cm, 2-4 mCi i.p., 10 days after treatment", "result": "4±1", "unit": "%"}, {"measurement": "necrotic areas, share of tumor volume", "setting": "[2]; 22-week-old PyMT mice, tumors more than 1 cm, 2 mCi i.p., 10 days after treatment", "result": 14, "unit": "%"}, {"measurement": "apoptosis or necrosis in healthy mammary glands", "setting": "[2]; C3H/B6 mice, 3 mCi i.p.", "result": "No apoptosis or necrosis was detected"}, {"measurement": "changes in eating and drinking habits, urine and fecal excretion, or body weight", "setting": "[2]; PyMT mice, 2-4 mCi i.p., observed for 10 days", "result": "No changes"}, {"measurement": "radioactivity detected in mice", "setting": "[2]; PyMT mice, 24 hours after injection", "result": "no radioactivity was detected"}, {"measurement": "tumor to normal muscle ratio (TNR)", "setting": "xenografted Notch tumor [3]", "result": "3.24 and 3.24±0.20"}, {"measurement": "mean (95% CI) time to death", "setting": "xenografted Notch tumor [4]", "result": "18 (13-23) days"}, {"measurement": "survival period", "setting": "xenografted Notch tumor [4]; longest survival", "result": "up to 30 days"}, {"measurement": "median tumor growth rate", "setting": "xenografted Notch tumor [4]; therapy group", "result": 0.020, "unit": "cm^3/day"}]}]}
